Measurements published in paper PMC12260505, “First-in-Human Phase I/IIa Study of the First-in-Class CDK2/4/6 Inhibitor PF-06873600 Alone or with Endocrine Therapy in Patients with Breast Cancer” (Clinical Cancer Research, 2025).

System: HR+/HER2− metastatic breast cancer
Assay: Antitumor activity by RECIST version 1.1
Assay type: in vivo, human
Settings: for Objective response (CR + PR; pts with HR+/HER2− breast cancer with measurable disease at baseline and prior CDK4/6i): 40 such pts
Description: Antitumor activity was assessed through radiological tumor assessments conducted at baseline, during treatment, whenever disease progression was suspected (e.g., symptomatic deterioration), and at the time of withdrawal from treatment (if not done in the previous 8 weeks). Responses were assessed using RECIST version 1.1.
DLT was the primary endpoint of the study, summarized by dose level using the per-protocol analysis set for patients in the dose escalation portion of the study. Efficacy analysis was summarized by dose cohorts for part 2 of the study. For part 1, no formal efficacy analysis was presented. For part 2, tumor response was presented in the form of patient data listings that included, but were not limited to, tumor type, starting dose, tumor response at each visit, and best overall response. In addition, progression date, death date, date of first response, last tumor assessment date, and date of last contact were listed. ORR, PFS, overall survival, TTP, and DoR were summarized and presented as data permitted. For response-based metrics (best overall response, ORR, and DoR), analyses were presented on the basis of confirmed responses. Analyses of PFS and TTP were defined as the time from the date of the first dose. Summaries of the number and percentage of patients with PFS and TTP and data listings by tumor type and dose were generated based on data availability. The 95% confidence intervals (CI) for medians and quartiles were generated based on the Brookmeyer–Crowley method, whereas CIs for the estimated probability of an event at a particular time point were generated using the Greenwood formula. DoR was summarized with the number of responders, the number and percentage of events/censorship, mean, standard deviation, and minimum, maximum, and median duration in units of months. ORR was summarized by the number of patients meeting respective criteria as a percentage. The 95% CIs were generated for PFS, TTP, and ORR based on available data.

[1] = Part 2A 25 mg twice daily IR + Fulvestrant, n = 45, response-evaluable set
[2] = Part 2C 25 mg twice daily IR + Fulvestrant, n = 22, response-evaluable set
[3] = Part 2 total (2A + 2C, + Fulvestrant), N = 67

## C[C@@]1(O)CCC[C@H]1n1c(=O)c(C(F)F)cc2cnc(NC3CCN(S(C)(=O)=O)CC3)nc21 [PF-06873600]
Part 2A 25 mg twice daily IR + Fulvestrant
  Objective response (CR + PR; pts with HR+/HER2− breast cancer with measurable disease at baseline and prior CDK4/6i): 3 (7.5) n (%)
Part 2A 25 mg twice daily IR + Fulvestrant, 44 such pts
  Objective response (pts with HR+/HER2− breast cancer with measurable disease at baseline): 3 (6.8) n (%)
[1]
  Clinical benefit response (CR, PR, or ≥24 weeks stable disease): 19 (42.2) n (%)
  Confirmed best overall response, CR: 0 n (%)
  Confirmed best overall response, NE (not evaluable): 1 (2.2) n (%)
  Confirmed best overall response, Non-CR/non-PD: 0 n (%)
  Confirmed best overall response, PR: 3 (6.7) n (%)
  Confirmed best overall response, Progressive disease (PD): 11 (24.4) n (%)
  Confirmed best overall response, Stable disease: 30 (66.7) n (%)
  Disease control (CR + PR + stable disease + non-CR/non-PD): 33 (73.3) n (%)
  Objective response (CR + PR): 3 (6.7) n (%)
Part 2C 25 mg twice daily IR + Fulvestrant, 20 such pts
  Objective response (pts with HR+/HER2− breast cancer with measurable disease at baseline): 5 (25.0) n (%)
[2]
  Clinical benefit response (CR, PR, or ≥24 weeks stable disease): 13 (59.1) n (%)
  Confirmed best overall response, CR: 0 n (%)
  Confirmed best overall response, NE (not evaluable): 1 (4.5) n (%)
  Confirmed best overall response, Non-CR/non-PD: 1 (4.5) n (%)
  Confirmed best overall response, PR: 5 (22.7) n (%)
  Confirmed best overall response, Progressive disease (PD): 2 (9.1) n (%)
  Confirmed best overall response, Stable disease: 13 (59.1) n (%)
  Disease control (CR + PR + stable disease + non-CR/non-PD): 19 (86.4) n (%)
  Objective response (CR + PR): 5 (22.7) n (%)
[3]
  Clinical benefit response (CR, PR, or ≥24 weeks stable disease): 32 (47.8) n (%)
  Confirmed best overall response, CR: 0 n (%)
  Confirmed best overall response, NE (not evaluable): 2 (3.0) n (%)
  Confirmed best overall response, Non-CR/non-PD: 1 (1.5) n (%)
  Confirmed best overall response, PR: 8 (11.9) n (%)
  Confirmed best overall response, Progressive disease (PD): 13 (19.4) n (%)
  Confirmed best overall response, Stable disease: 43 (64.2) n (%)
  Disease control (CR + PR + stable disease + non-CR/non-PD): 52 (77.6) n (%)
  Objective response (CR + PR): 8 (11.9) n (%)
Part 2 total (+ Fulvestrant)
  Objective response (CR + PR; pts with HR+/HER2− breast cancer with measurable disease at baseline and prior CDK4/6i): 3 (7.5) n (%)
Part 2 total (+ Fulvestrant), 64 such pts
  Objective response (pts with HR+/HER2− breast cancer with measurable disease at baseline): 8 (12.5) n (%)
Part 1 dose escalation, 78 patients (parts 1A, 1B, 1C)
  Partial responses (PR), patients: 3.8%
